From PubChem BioAssay (NCI)
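Growth conditions: 96-well plates. Treatment: test compound, 48 hours, 5 concentrations. Analysis: linear interpolation between bracketing concentrations; unreached endpoints set to highest concentration. The concentration for 50% growth inhibition is given as GI50. TGI: total growth inhibition.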

Assays:
Test in all cases: inhibition of tumour cell growth, NCI panel, 48 h
OVCAR-5 ovarian = tested on: OVCAR-5 ovarian
OVCAR-8 ovarian = tested on: OVCAR-8 ovarian
NCI-H23 lung = tested on: NCI-H23 lung
HT29 colon = tested on: HT29 colon
CCRF-CEM leukemia = tested on: CCRF-CEM leukemia
UACC-62 melanoma = tested on: UACC-62 melanoma
HOP-92 NSCLC = tested on: HOP-92 NSCLC
IGROV1 ovarian = tested on: IGROV1 ovarian
HS 578T breast = tested on: HS 578T breast
MDA-MB-231 breast = tested on: MDA-MB-231 breast

Row | SMILES | TGI (OVCAR-5 ovarian) [µM] | TGI (OVCAR-8 ovarian) [µM] | TGI (NCI-H23 lung) [µM] | TGI (HT29 colon) [µM] | TGI (CCRF-CEM leukemia) [µM] | TGI (UACC-62 melanoma) [µM] | TGI (HOP-92 NSCLC) [µM] | TGI (IGROV1 ovarian) [µM] | GI50 (OVCAR-5 ovarian) [µM] | GI50 (HS 578T breast) [µM] | TGI (HS 578T breast) [µM] | GI50 (OVCAR-8 ovarian) [µM] | GI50 (NCI-H23 lung) [µM] | GI50 (HT29 colon) [µM] | GI50 (UACC-62 melanoma) [µM] | GI50 (HOP-92 NSCLC) [µM] | GI50 (IGROV1 ovarian) [µM] | GI50 (MDA-MB-231 breast) [µM] | TGI (MDA-MB-231 breast) [µM] | GI50 (CCRF-CEM leukemia) [µM]
1 | BrC(/C=N/Nc1nnc(-c2ccccc2)c(-c2ccccc2)n1)C(Br)c1ccccc1 (stereo not drawn) | > 100 | > 100 | > 100 | > 100 | 94.7 | 53.5 | 64.5 | > 100 |  |  |  |  |  |  |  |  |  |  |  | 
2 | COc1ccc2c(c1)OCC1c3cc(OC)ccc3OC21 (stereo not drawn) | > 100 | > 100 | > 100 | > 100 |  | > 100 | > 100 | > 100 | 80.1 | > 100 | > 100 | 80.3 | 36.2 | 34.9 | 51 | 60.3 | 49.5 | 46.4 | > 100 | 
3 | COc1cc(C(=O)N[C@@H]2CCCN(C)C2)ccc1Nc1ncc2c(n1)N(C1CCCC1)CC(C)(C)C(=O)N2C | 17.5 | 16.8 | 3.01 | 6.46 | 16.5 | 15.5 |  | 21.7 | 0.0608 | 0.188 | 19.9 | 0.0541 | 0.041 | 0.0363 | 0.153 |  | 0.396 | 1.56 | 15.6 | 0.0349
4 | O=c1[nH]c2c(ccc3cnccc32)c2c1CCC2 | > 100 | > 100 | > 20.3 | > 100 | 0.708 | 0.622 |  | 0.923 | 0.461 | 0.247 | 0.808 | 0.331 | 0.394 | 0.447 | 0.214 |  | 0.258 | 0.361 | > 100 | 0.248
5 | COc1ccc2c(c1)c(-c1nc(-c3cn(C)c4ncccc34)cs1)cn2CCCCN1CCCCC1 | 3.08 |  | 3.28 | 3.03 |  |  | 2.76 |  | 1.65 |  |  |  | 1.75 | 1.59 |  | 1.38 |  |  |  | 
6 | CCc1cccc(CC)c1NC1=CC(=O)C(=O)c2ccccc21 | 31 | 36.7 | 3.02 | 3.95 | > 100 | 30.1 | 29.6 | 28.9 |  |  |  |  |  |  |  |  |  |  |  | 
7 | Cc1nn(-c2ccccc2)c2c1[C@@H](C)[C@H]1CC3(CC4(C)C[C@@H]3C1(C)c1c(C)nn(-c3ccccc3)c1N4C)N2C (stereo partly drawn) | > 100 |  | > 100 |  |  |  | 8.68 | > 100 | > 100 | > 100 | > 100 |  | > 100 |  |  | 0.792 | > 100 | > 100 | > 100 | 
8 | Cc1cc(Br)ccc1N=NC1C(=O)ON=C1c1ccccc1 (stereo not drawn) | > 100 | > 100 | > 100 | > 100 |  | > 100 | > 100 | > 100 |  |  |  |  |  |  |  |  |  |  |  | 
9 | N/C(=N\O)c1cn(C2OC(CO)C(O)C2O)c2ncnc(N)c12 (stereo not drawn) | > 40.5 | 2.59 | 5.18 | 18.6 | > 38.6 | 0.366 |  | 20.7 | 0.507 | 0.263 | 3.62 | 0.186 | 0.229 | 0.226 | 0.141 |  | 0.263 | 0.197 | 18.9 | 0.303
10 | CC(=O)[O-].O=C([CH-]C(=O)c1ccccc1)c1ccccc1.O=C([CH-]C(=O)c1ccccc1)c1ccccc1.[Dy+3] | > 100 | 36.5 | 37 | 26.2 |  | 48.1 | 43.9 | 93.8 | 34.9 |  |  | 4.78 | 9.36 | 11.3 | 9.15 | 18.8 | 18.5 |  |  | 
11 | CCCCCCCCCCCCCCCCCCCCCCC(=O)N[C@H]1CCc2cc(OC)c(OC)c(OC)c2-c2ccc(SC)c(=O)cc21 | > 100 | 85.6 | 62.2 | 99 | > 100 | > 100 | > 100 | > 100 |  |  |  |  |  |  |  |  |  |  |  | 
12 | CNC(=S)N/N=C/CSC/C=N/NC(=S)NC | > 100 | > 100 | > 100 |  | > 100 | > 100 | > 100 | > 100 | > 100 | > 100 | > 100 | > 100 | > 100 |  | > 100 | > 100 |  | > 100 | > 100 | 24.7
13 | C=CC(C)(C)[C@@]12CC3C(=O)N[C@@H](Cc4ccccc4)C(=O)N3[C@@H]1N(C(C)=O)c1ccccc12 (stereo partly drawn) | > 100 | > 100 | > 100 | > 100 | > 100 | > 100 | 91.2 | > 100 |  |  |  |  |  |  |  |  |  |  |  | 
14 | CC(=O)Nc1ccc(/C=C/C(=O)c2sc(-n3nc(-c4ccccc4)cc3-c3ccccc3)nc2C)cc1 |  | > 100 | > 100 | > 100 | > 100 | > 100 |  | > 100 |  |  |  | > 100 | > 100 |  | > 100 |  | > 100 |  |  | > 100
15 | O=C1N(c2ccccc2)C2(O)C(=O)c3ccccc3C2(O)N1c1ccccc1 (stereo not drawn) | > 100 | > 100 | > 100 | > 100 | > 100 | > 100 |  | > 100 |  |  |  |  |  |  |  |  |  |  |  | 
16 | CCN(CC)CCCC(C)Nc1ccnc2cc(OC)ccc12 (stereo not drawn) | 50.2 | 71.1 | 96.3 |  | 42.3 | 37.7 | 26.7 | 79.3 | 21.2 | 26.3 | 66.3 | 24.3 | 31.6 |  | 19.5 | 9.25 | 27.3 | 22.5 | 54.3 | 18.1
17 | O=c1ccn([C@@H]2C[C@H](CO)CS(=O)C2)c(=O)[nH]1 (stereo partly drawn) |  | > 100 | > 100 | > 100 | > 100 | > 100 | > 100 | > 100 |  |  |  |  |  |  |  |  |  |  |  | 
18 | CCOc1ccc(/C=C/C(=O)c2sc(NNC(C)=O)nc2C)cc1 | > 100 | > 100 | > 100 | > 100 | > 100 | > 100 | > 100 | > 100 |  |  |  |  |  |  |  |  |  |  |  | 
